TGI data for 8 compounds are collected here from PubChem BioAssay (NCI).

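A five-concentration, 48-hour dose response in 96-well plates underlies each endpoint, interpolated linearly between surrounding concentrations. TGI denotes the concentration required for complete inhibition of growth.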

Test systems include 786-0 renal; COLO 205 colon; HCT-116 colon; HCT-15 colon; HOP-62 NSCLC; K-562 leukemia; MALME-3M melanoma; MOLT-4 leukemia; NCI-H226 lung; OVCAR-4 ovarian; SF-295 CNS; SK-MEL-2 melanoma; SW-620 colon; UACC-257 melanoma; UO-31 renal; MCF7 breast; MDA-MB-435; NCI/ADR-RES ovarian; PC-3 prostate.
Common to all, as to assay: inhibition of tumour cell growth, NCI panel, 48 h

Regarding `N#CC(NNC(=O)c1ccccc1O)c1ccccc1O` (stereo not given), the TGI in the experiment with 786-0 renal, in the experiment with COLO 205 colon, in the experiment on HCT-116 colon, with HCT-15 colon, with HOP-62 NSCLC and with K-562 leukemia was over 100 µM in each case. Moreover, the TGI in the experiment on MALME-3M melanoma is 96.1 µM; with MOLT-4 leukemia it was over 100 µM; in the experiment on NCI-H226 lung, 25.1 µM; with OVCAR-4 ovarian, over 100 µM; in the experiment with SF-295 CNS, over 100 µM; in the experiment on SK-MEL-2 melanoma, over 100 µM. The TGI with SW-620 colon was over 100 µM; with UACC-257 melanoma, 83 µM; in the experiment on UO-31 renal it was 48.4 µM.
Take `COC(=O)N1C=Cc2c(c(C)c3c([nH]c4ccccc43)c2C)C1C` (stereo not given): the TGI was 26.5 µM in the experiment on 786-0 renal; 34.4 µM with COLO 205 colon; 25.6 µM in the experiment on HCT-116 colon; 26.4 µM in the experiment with HCT-15 colon; 34.5 µM in the experiment with HOP-62 NSCLC; 37.7 µM in the experiment on K-562 leukemia. Besides, the TGI is 36.3 µM in the experiment with MALME-3M melanoma; 43.3 µM in the experiment on MOLT-4 leukemia; 35.7 µM in the experiment on NCI-H226 lung; 26.1 µM in the experiment on OVCAR-4 ovarian; 28.6 µM with SF-295 CNS; 34 µM in the experiment on SK-MEL-2 melanoma. For the same compound, the figures for the TGI in the experiment on SW-620 colon, in the experiment with UACC-257 melanoma and in the experiment on UO-31 renal were 38.9 µM, 35 µM and 34.2 µM, respectively.
`COc1cc(/C=C(\C#N)C(=O)c2ccccc2)cc(OC)c1OC`: the TGI with 786-0 renal, with COLO 205 colon, in the experiment on HCT-116 colon, in the experiment with HCT-15 colon, in the experiment with HOP-62 NSCLC and in the experiment with K-562 leukemia was over 100 µM each time. Further, the TGI in the experiment with MALME-3M melanoma, with MOLT-4 leukemia, with NCI-H226 lung, in the experiment with OVCAR-4 ovarian, with SF-295 CNS and with SK-MEL-2 melanoma was over 100 µM in each case. Besides, the TGI with SW-620 colon, in the experiment with UACC-257 melanoma and with UO-31 renal was over 100 µM throughout.
In the case of `CSc1cnc2ccccc2c1Sc1cn(C)c2ccccc2c1=O`, the TGI in the experiment on 786-0 renal was over 100 µM; with COLO 205 colon, over 100 µM; in the experiment with HCT-116 colon it was over 100 µM; in the experiment on HCT-15 colon it was over 100 µM; with HOP-62 NSCLC it was 57.3 µM; with K-562 leukemia, over 100 µM. Also, the TGI in the experiment with MALME-3M melanoma is over 100 µM; in the experiment with MOLT-4 leukemia it was over 100 µM; in the experiment with NCI-H226 lung, 73.8 µM; with OVCAR-4 ovarian, over 100 µM; in the experiment with SF-295 CNS it was over 100 µM; in the experiment with SK-MEL-2 melanoma, over 100 µM. Besides, the TGI in the experiment with SW-620 colon, in the experiment on UACC-257 melanoma and in the experiment on UO-31 renal was over 100 µM throughout.
As for `O=C1/C(=C/c2ccc(Cl)cc2)NC(=S)N1CN1CCCCC1`, the TGI was over 100 µM with 786-0 renal; 64.1 µM in the experiment with COLO 205 colon; over 100 µM in the experiment on HCT-116 colon; 58.2 µM in the experiment on HCT-15 colon; over 100 µM in the experiment on HOP-62 NSCLC; over 100 µM in the experiment with K-562 leukemia. The TGI in the experiment with MALME-3M melanoma is 88.7 µM; in the experiment on MCF7 breast, 82.1 µM; in the experiment with MDA-MB-435, over 100 µM; in the experiment on MOLT-4 leukemia, over 100 µM; with NCI-H226 lung it was over 100 µM; in the experiment with NCI/ADR-RES ovarian it was 72 µM. Besides, the TGI in the experiment on PC-3 prostate is over 100 µM; in the experiment with SF-295 CNS, over 100 µM; in the experiment on SK-MEL-2 melanoma, over 100 µM; in the experiment with SW-620 colon it was 45.3 µM; in the experiment with UO-31 renal, over 100 µM.
Regarding `COc1ccc(C2OC2C(=O)C23CC4CC(CC(C4)C2)C3)cc1` (stereo not given), the TGI with 786-0 renal, with HCT-116 colon, with HCT-15 colon, in the experiment with HOP-62 NSCLC, with K-562 leukemia and in the experiment on MALME-3M melanoma was over 100 µM each time. In addition, the TGI with MCF7 breast, with MDA-MB-435, in the experiment on MOLT-4 leukemia, with NCI-H226 lung, with NCI/ADR-RES ovarian and in the experiment on OVCAR-4 ovarian was over 100 µM throughout. In addition, the TGI in the experiment on PC-3 prostate, in the experiment with SF-295 CNS, in the experiment with SW-620 colon, in the experiment on UACC-257 melanoma and in the experiment with UO-31 renal was over 100 µM each time.
`CSC(SC)=C1Sc2cccc(Cl)c2S1`: the TGI was over 100 µM with 786-0 renal; 41.3 µM with COLO 205 colon; over 100 µM with HCT-116 colon; over 100 µM with HCT-15 colon; over 100 µM in the experiment with HOP-62 NSCLC; over 100 µM in the experiment on K-562 leukemia. For the same compound, the TGI in the experiment on MALME-3M melanoma is over 100 µM; in the experiment on MOLT-4 leukemia it was over 100 µM; in the experiment with NCI-H226 lung, over 100 µM; in the experiment on OVCAR-4 ovarian, over 100 µM; in the experiment with SF-295 CNS, over 100 µM; with SK-MEL-2 melanoma, 48.8 µM. The TGI in the experiment with SW-620 colon, in the experiment on UACC-257 melanoma and in the experiment on UO-31 renal was over 100 µM in each case.
As to `CC1=C(C(N)=O)C(c2ccncc2)C(C#N)C(=O)N1` (stereo not given), the TGI in the experiment with 786-0 renal, with COLO 205 colon, with HCT-116 colon, in the experiment with HCT-15 colon, in the experiment on HOP-62 NSCLC and in the experiment with K-562 leukemia was over 100 µM throughout. Moreover, the TGI in the experiment with MCF7 breast, in the experiment with MDA-MB-435, with MOLT-4 leukemia, with OVCAR-4 ovarian, in the experiment with PC-3 prostate and with SF-295 CNS was over 100 µM throughout. In addition, the TGI in the experiment on SK-MEL-2 melanoma, with SW-620 colon, with UACC-257 melanoma and with UO-31 renal was over 100 µM in each case.
